According to BigSolDB 2.1:

O=[N+]([O-])c1cccc(Cl)c1Cl
solubility (mole fraction)
Conditions | in ethanol | in methanol | in water
278.15 K | 0.013 | 0.0122 | 1.6e-06
280.65 K | 0.0149 | 0.0137 | 2.03e-06
283.15 K | 0.0172 | 0.0157 | 2.45e-06
285.65 K | 0.0203 | 0.0182 | 2.88e-06
288.15 K | 0.0231 | 0.0206 | 3.91e-06
290.65 K | 0.0257 | 0.0232 | 4.85e-06
293.15 K | 0.0286 | 0.0258 | 5.85e-06
295.65 K | 0.0322 | 0.0288 | 6.98e-06
298.15 K | 0.0366 | 0.0315 | 8.68e-06
300.65 K | 0.0418 | 0.0343 | 1.07e-05
303.15 K | 0.0465 | 0.0376 | 1.29e-05
